From patent publication US8062860B2, “Kit for measuring in vivo mutation frequency at an endogenous gene locus” (Litron Laboratories, Ltd., priority 2006, dated 2011)
Entries after “also recorded” stand apart in the source; their conditions may differ.

Tests used:
pig-a gene [1] = test: pig-a mutant erythrocyte frequency measured with and without aerolysin selective lysis, using counting beads (Example 3); format: in vivo, Sprague-Dawley rat; conditions: female rats; ENU 100 mg/kg/day or DMBA 40 mg/kg/day on three days; blood 6 weeks thereafter; vs untreated; FIG. 5
Protocol: Blood samples are obtained and processed (labeling with fluorochromes) as described above. Specimens were subsequently divided to provide pig-a mutant erythrocyte frequency measurements made with and without the use of aerolysin. To each of the samples, a small volume of high density microsphere suspension is added. Preferably, between about 10^3 to about 10^6 microspheres/specimen are added. Suitable microspheres are commercially available from a number of sources, including Becton Dickinson, Molecular Probes, and Polysciences. After mixing each sample to ensure a homogeneous suspension, a small aliquot of each cell/microsphere solution is transferred to a tube containing a balanced salt solution such that the resulting dilution yields a density of beads and cells which is low enough so that the rate of particles passing through the detection device yields accurate measurements (e.g., less than about 7,000 events per second for a Becton Dickinson FACSCalibur; higher densities may lead to excessive coincidence, which is multiple particles simultaneously at the fluid stream-laser beam intersection). The other (undiluted) specimen is treated with aerolysin to lyse the majority of non-mutant erythrocytes and reticulocytes. Reticulocyte:bead ratios are measured for both diluted and undiluted/aerolysin-treated samples using, e.g., an optical detection system of the type described above. From these ratios, it is possible to calculate the frequency of mutant reticulocytes per 10^6 reticulocytes.
For example, a small volume of a bead stock suspension (10 μl) is added to a suspension of high density cells that have been stained for a mutation frequency determination (1 ml). A small fraction of the cell/bead suspension is then transferred to a tube containing an isotonic solution such that the resulting density of beads and cells is low enough to prevent excessive coincidence. Flow cytometric analysis then allows for determination of the reticulocyte to bead ratio; for example 7,500 reticulocytes and 100 beads would indicate a ratio of 75 reticulocytes per bead. The aerolysin-treated specimen (with a majority of non-mutant erythrocytes and reticulocytes lysed due to aerolysin) is subsequently analyzed. Even while the majority of erythrocytes and reticulocytes have been lysed, it is still possible to analyze 10^6 or more “virtual reticulocytes” by setting the stop mode so that the proportionate number of beads (which are unaffected by aerolysin) have been interrogated. In this example, the stop mode would be set so that data accumulate until 10^6 divided by 75 beads have been acquired, i.e., 13,333 beads. In this manner, it is possible to score the number of mutant reticulocytes per 13,333 beads, or in other words, per 10^6 virtual reticulocytes. […]

pig-a gene [2] = test: mutant erythrocytes versus mutant reticulocytes, FSC and FL1 thresholding (Example 5); format: in vivo, rat; conditions: rats, 100 mg ENU/kg/day or 40 mg DMBA/kg/day three times in one week; 4 weeks post-exposure; vs untreated; FIG. 7
Source text: In practice, this means the mutation frequency for entire erythrocyte population and a mutation frequency for the reticulocyte fraction can each be efficiently determined by analyzing each stained blood specimen two times: once at high density with FL1 thresholding, and a second time upon dilution using a FSC threshold setting. In this manner it is possible to efficiently interrogate enough cells (e.g. 10^6 reticulocytes and also 10^6 total erythrocytes) for accurate measures of mutant frequency (see FIGS. 4A-B).
For this experiment, rats were untreated, or exposed to 100 mg ENU/kg/day or 40 mg DMBA/kg/day. These exposures were performed three times in one week (M, W, F). Blood was collected from the tail vein of these animals 4 weeks post-exposure. Blood samples were stained according to the present invention. Specifically, high density blood specimens were contacted with anti-CD59-PE to differentially label mutant and non-mutant erythrocytes, and biotinylated anti-CD61 followed by streptavidin-Cy5-PE as a platelet-specific label used to exclude these particles from analysis. After a washing steps to remove unbound antibodies and streptavidin-Cy5-PE, cells were resuspended in a thiazole orange solution (0.1 μg/ml) and allowed to incubate at room temperature for about 30 minutes. Specimens were placed on ice and protected from light until flow cytometric analysis (within about 4 hours). Cells were analyzed at low density with FSC thresholding, and also at high density with FL1 thresholding. As described in Example 2, this provided mutant frequencies in both the total erythrocyte and the reticulocyte populations.

pig-a gene [3] = test: time course of CD59-negative reticulocyte frequency with FL1 thresholding (Example 4); format: in vivo, Sprague Dawley rat
Source text: In this case, it is possible to set the threshold parameter to the nucleic acid dye-associated fluorescence channel (e.g., FL1 for thiazole orange), as opposed to the more common forward scatter trigger. When set sufficiently high (that is, above the fluorescence intensity of mature erythrocytes), this can restrict analysis to reticulocytes.
Rather, it must be coupled with the preparation of very high density specimens. When these two adjustments are made, much quicker data acquisition rates are achieved. For instance, by eliminating mature erythrocytes with an FL1 threshold and analyzing specimens prepared at very high cell densities (for example 3×10^8/ml), it is possible to reduce the time needed to acquire 10^6 reticulocytes from 80 minutes to about 5 to 15 minutes.
The use of serial blood specimens also facilitated an assessment of the influence of blood harvest time. For this experiment, Sprague Dawley rats were treated with either vehicle or […] on three days (M, W, F). Blood was collected from the tail vein of these animals before treatment and over a 5 week post-exposure period. After two washing steps, high density blood samples were stained according to the present invention. […] Cells were analyzed according to the FL1 thresholding technique described in Example 2.

pig-a gene [4] = test: three-color flow cytometric scoring of pig-a mutant (CD59-negative) erythrocytes in blood of treated rats (Example 1); format: in vivo; conditions: rat, 100 mg/kg/day for three days at 48 hr intervals; blood several weeks after final administration; FIG. 3E
Protocol: Whole blood specimens (EDTA as anticoagulant) were obtained from the tail vein of vehicle- or ethyl-N-nitrosourea (ENU) treated rats (100 mg/kg/day for three days at 48 hr intervals; blood collected several weeks after the final administration). […] Thereafter, cells were contacted with anti-CD59-PE to differentially label mutant and non-mutant erythrocytes, and biotinylated anti-CD61 followed by streptavidin-Cy5-PE as a platelet-specific label used to exclude these particles from analysis. After washing steps to remove unbound antibodies and unbound streptavidin-Cy5-PE, cells were resuspended in a thiazole orange solution (0.1 μg/ml). Specimens were incubated at room temperature for about 30 minutes, and thereafter were placed on ice until flow cytometric analysis occurred (within about 4 hours).
As shown by FIGS. 3A-E, the labeling procedure was able to successfully discriminate mature erythrocytes and reticulocytes from other cell types, as well as from platelets. Furthermore, it was capable of providing high fluorescent resolution between CD59-negative and CD59-positive erythrocytes, thus facilitating quantification of mutant erythrocyte frequency.
The flow cytometry data acquisition/analysis software (CellQuest v3.3) allowed for configuring alternative gating strategies.

| Structure (SMILES) | mutant erythrocyte (CD59-negative) frequency, analysis with aerolysin to enrich for mutants (pig-a gene [1]) | mutant erythrocyte (CD59-negative) frequency, analysis without aerolysin (pig-a gene [1]) | frequency of CD59-negative erythrocytes (total erythrocyte population) (pig-a gene [2]) | frequency of CD59-negative reticulocytes (pig-a gene [2]) | CD59- (mutant) reticulocyte frequency (pig-a gene [3]; rats, 100 mg ENU/mg/day on three days, 5 week post-exposure period, three animals, vs vehicle, FIG. 6) | time of maximal mutant reticulocyte frequency (pig-a gene [3]; two of the three ENU-treated animals (E2 and E3), animal E1 continued to rise through week 5) [week] | frequency of mutant (CD59-negative) erythrocytes (pig-a gene [4]) |
| --- | --- | --- | --- | --- | --- | --- | --- |
| Cc1c2ccccc2c(C)c2c1ccc1ccccc12 [DMBA, 7,12-dimethyl-1,2-benz[a]anthracene] | significant increases | significant increases | greatly elevated | greatly elevated |  |  |  |
| CCN(N=O)C(N)=O [ENU, ethyl-N-nitrosourea] | significant increases | significant increases | greatly elevated | greatly elevated | greatly elevated; also recorded: markedly elevated | 4 | relatively high frequency of mutant erythrocytes |
